Laboratory results published in USRE48461E1, “Modulation of androgen receptor expression” (Ionis Pharmaceuticals, Inc., priority 2012, dated 2021).
Oligonucleotides are written 5' to 3', each unit as a sugar letter and its base; * is a phosphorothioate linkage, no mark a phosphodiester; rarer units and linkages stand in square brackets, end groups in braces. Plain capitals give the bases only. k = constrained ethyl (cEt); [5mC] = 5-methylcytosine; d = 2'-deoxy (DNA)

How the values were obtained:
AR mRNA [1] = experiment: Dose-dependent antisense inhibition of human AR in HuVEC cells (electroporation, qRT-PCR RTS3559, IC50); format: cell-based; conditions: HuVEC
Method in brief: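 HuVEC cells dosed with antisense oligonucleotides by electroporation and treated approximately 16 hours. AR mRNA quantified by real-time qPCR with primer probe set RTS3559 and normalised to total RNA by RIBOGREEN; IC50 from dose-response.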

AR mRNA [2] = experiment: Antisense inhibition of human AR in HuVEC cells, single concentration (electroporation, qRT-PCR RTS3559); format: cell-based
Method in brief: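 HuVEC cells electroporated with antisense oligonucleotides at a single concentration. AR mRNA quantified by qRT-PCR using human primer-probe set RTS3559 and normalised to total RNA content by RIBOGREEN.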

[3] = Table 33, electroporation, approximately 16 hours
[4] = Table 20, 500 nM oligonucleotide, electroporation, approximately 24 hours, relative to untreated control
[5] = Table 30, electroporation, approximately 16 hours
[6] = Table 29, electroporation, approximately 16 hours
[7] = Table 36, electroporation, approximately 16 hours
[8] = Table 32, electroporation, approximately 16 hours

In the case of “583851 (kG*kT*kG*dG*dG*dA*d[5mC]*dG*d[5mC]*dA*d[5mC]*dA*dG*k[5mC]*kG*kG; antisense) [compound 583851]”, the “percent inhibition of AR, 46.9 nM” value (AR mRNA [1]; [3]) is reported as 8%, the “percent inhibition of AR, 187.5 nM” value (AR mRNA [1]; [3]) is reported as 24% and the “percent inhibition of AR, 750.0 nM” value (AR mRNA [1]; [3]) is reported as 54%. For the same substance, the “percent inhibition of AR, 3000.0 nM” value (AR mRNA [1]; [3]) was 76%, the IC50 (AR mRNA [1]; [3]) was 610 nM and the “% inhibition” value (AR mRNA [2]; [4]) was 33%.

“583727 (antisense kG*kA*kT*dT*d[5mC]*dT*dG*dG*dA*dA*dA*dG*d[5mC]*kT*k[5mC]*k[5mC]) [compound 583727]” was tested, and the “percent inhibition of AR, 46.9 nM” value (AR mRNA [1]; [5]) was 18%, the “percent inhibition of AR, 187.5 nM” value (AR mRNA [1]; [5]) was 49% and the “percent inhibition of AR, 750.0 nM” value (AR mRNA [1]; [5]) was 70%. The “percent inhibition of AR, 3000.0 nM” value (AR mRNA [1]; [5]) was 76%, the IC50 (AR mRNA [1]; [5]) was 290 nM and the “% inhibition” value (AR mRNA [2]; 500 nM ASO, ~24 h, Table 18) was 40%.

“549379 (kG*k[5mC]*kT*d[5mC]*d[5mC]*d[5mC]*dG*d[5mC]*d[5mC]*dT*d[5mC]*dG*d[5mC]*k[5mC]*kG*k[5mC]; antisense) [compound 549379]” was tested, and the “percent inhibition of AR” value (AR mRNA [1]; 55.6 nM, ~16 h, Table 3) was 11%, the “percent inhibition of AR” value (AR mRNA [1]; 166.7 nM, ~16 h, Table 3) was 51% and the “percent inhibition of AR” value (AR mRNA [1]; 500.0 nM, ~16 h, Table 3) was 68%. For the same substance, the “percent inhibition of AR” value (AR mRNA [1]; 1500.0 nM, ~16 h, Table 3) was 88%, the IC50 (AR mRNA [1]; ~16 h, Table 3) was 237 nM and the “% inhibition” value (AR mRNA [2]; 500 nM ASO, electroporation, ~24 h, Table 1) was 86%.

In the case of “583567 (antisense kG*k[5mC]*kA*d[5mC]*dT*dT*dT*d[5mC]*d[5mC]*dT*dT*dG*d[5mC]*kT*kT*k[5mC]) [compound 583567]”, the “percent inhibition of AR, 46.9 nM” value (AR mRNA [1]; [6]) is reported as 17%, the “percent inhibition of AR, 187.5 nM” value (AR mRNA [1]; [6]) is reported as 34% and the “percent inhibition of AR, 750.0 nM” value (AR mRNA [1]; [6]) is reported as 60%. For the same substance, the “percent inhibition of AR, 3000.0 nM” value (AR mRNA [1]; [6]) was 79%, the IC50 (AR mRNA [1]; [6]) was 430 nM and the “% inhibition” value (AR mRNA [2]; 500 nM ASO, ~24 h, Table 16) was 52%.

In the case of “560098 (kT*kG*kA*dT*dT*dT*dA*dA*dT*dG*dG*dT*dT*kG*k[5mC]*kA; further chemistry not given here) [compound 560098]”, the “percent inhibition of AR” value (AR mRNA [1]; 31.25 nM, ~16 h, Table 6) is reported as 20%, the “percent inhibition of AR” value (AR mRNA [1]; 31.25 nM, ~16 h, Table 8) is reported as 30% and the “percent inhibition of AR” value (AR mRNA [1]; 62.5 nM, ~16 h, Table 6) is reported as 41%. For the same substance, the “percent inhibition of AR” value (AR mRNA [1]; 62.5 nM, ~16 h, Table 8) was 54%, the “percent inhibition of AR” value (AR mRNA [1]; 125.0 nM, ~16 h, Table 6) was 64% and the “percent inhibition of AR” value (AR mRNA [1]; 125.0 nM, ~16 h, Table 8) was 65%. The “percent inhibition of AR” value (AR mRNA [1]; 500.0 nM, ~16 h, Table 6) was 94%, the “percent inhibition of AR” value (AR mRNA [1]; 500.0 nM, ~16 h, Table 8) was 89% and the “percent inhibition of AR” value (AR mRNA [1]; 1000.0 nM, ~16 h, Table 6) was 94%. The “percent inhibition of AR” value (AR mRNA [1]; 1000.0 nM, ~16 h, Table 8) was 97%, the IC50 (AR mRNA [1]; ~16 h, Table 6) was 100 nM and the IC50 (AR mRNA [1]; ~16 h, Table 8) was 70 nM. For the same substance, the “% inhibition” value (AR mRNA [2]; 250 nM ASO, ~24 h, Table 7) was 69% and the “% inhibition” value (AR mRNA [2]; 500 nM ASO, ~24 h, Table 5) was 99%.

“584329 (kG*kG*kT*dT*dA*dT*dG*dG*dT*dT*d[5mC]*dT*dG*kT*k[5mC]*kT; antisense) [compound 584329]” was tested, and the “percent inhibition of AR, 46.9 nM” value (AR mRNA [1]; [7]) was 0%, the “percent inhibition of AR, 187.5 nM” value (AR mRNA [1]; [7]) was 17% and the “percent inhibition of AR, 750.0 nM” value (AR mRNA [1]; [7]) was 67%. For the same substance, the “percent inhibition of AR, 3000.0 nM” value (AR mRNA [1]; [7]) was 86%, the IC50 (AR mRNA [1]; [7]) was 460 nM and the “% inhibition” value (AR mRNA [2]; 1,000 nM ASO, ~24 h, Table 26) was 58%.

In the case of “583749 (antisense kA*kG*kG*dT*dG*d[5mC]*dT*dG*d[5mC]*dG*d[5mC]*dT*d[5mC]*kG*k[5mC]*kG) [compound 583749]”, the “percent inhibition of AR, 46.9 nM” value (AR mRNA [1]; [8]) is reported as 34%, the “percent inhibition of AR, 187.5 nM” value (AR mRNA [1]; [8]) is reported as 40% and the “percent inhibition of AR, 750.0 nM” value (AR mRNA [1]; [8]) is reported as 75%. The “percent inhibition of AR, 3000.0 nM” value (AR mRNA [1]; [8]) was 87%, the IC50 (AR mRNA [1]; [8]) was 170 nM and the “% inhibition” value (AR mRNA [2]; Table 19, 500 nM oligonucleotide, electroporation, approximately 24 hours, relative to untreated control) was 36%.

“583738 (antisense kG*kT*kT*d[5mC]*dT*dG*dG*dA*dT*d[5mC]*dA*d[5mC]*dT*kT*k[5mC]*kG) [compound 583738]” was tested, and the “percent inhibition of AR, 46.9 nM” value (AR mRNA [1]; [5]) was 16%, the “percent inhibition of AR, 187.5 nM” value (AR mRNA [1]; [5]) was 40% and the “percent inhibition of AR, 750.0 nM” value (AR mRNA [1]; [5]) was 56%. For the same substance, the “percent inhibition of AR, 3000.0 nM” value (AR mRNA [1]; [5]) was 71%, the IC50 (AR mRNA [1]; [5]) was 510 nM and the “% inhibition” value (AR mRNA [2]; 500 nM ASO, ~24 h, Table 18) was 36%.

“583892 (k[5mC]*kA*kG*d[5mC]*d[5mC]*dT*dA*dG*dG*d[5mC]*dT*d[5mC]*dT*k[5mC]*kG*k[5mC]; antisense) [compound 583892]” was tested, and the “percent inhibition of AR, 46.9 nM” value (AR mRNA [1]; [3]) was 22%, the “percent inhibition of AR, 187.5 nM” value (AR mRNA [1]; [3]) was 38% and the “percent inhibition of AR, 750.0 nM” value (AR mRNA [1]; [3]) was 68%. The “percent inhibition of AR, 3000.0 nM” value (AR mRNA [1]; [3]) was 83%, the IC50 (AR mRNA [1]; [3]) was 270 nM and the “% inhibition” value (AR mRNA [2]; [4]) was 35%.
